Measured values taken from patent US20260356856A1, “KRAS G12S AND G12C INHIBITORS” (MIRATI THERAPEUTICS, INC., priority 2023, published 2026).

How the values were obtained:
KRas G12C = target: T1, KRas G12C (Homo sapiens, UniProt P01116, G12C); test: KRas binding assay, TR-FRET displacement of Cy5 labelled tracer; details: 60-minute incubation at room temperature, 1% DMSO, pH 7.5
T1 construct: Biotinylated KRas (corresponding to amino acids 1-169, produced at Accelegan Inc.); biotin (biotinylated); purchased Accelegan Inc
Outline: (§1)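 TR-FRET tracer-displacement readout after 60 min at room temperature, using KRas residues 1-169 (biotinylated) with terbium streptavidin and a Cy5 tracer. Buffer: 50 mM HEPES pH 7.5, 5 mM MgCl2, 0.005% Tween-20, 1 mM DTT, 1% DMSO final. IC50 from 4-parameter fit of POC data.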

KRas G12S = target: T2, KRas G12S (Homo sapiens, UniProt P01116, G12S); test: as above; details: 60-minute incubation at room temperature, 1% DMSO, pH 7.5
T2 construct: Biotinylated KRas (corresponding to amino acids 1-169, produced at Accelegan Inc.); biotin (biotinylated); purchased Accelegan Inc
Outline: as §1

KRas WT = target: T3, KRas WT (Homo sapiens, UniProt P01116); test: as above; details: 60-minute incubation at room temperature, 1% DMSO, pH 7.5
T3 construct: Biotinylated KRas (corresponding to amino acids 1-169, produced at Accelegan Inc.); biotin (biotinylated); purchased Accelegan Inc
Outline: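 Final conditions: 1% DMSO, pH 7.5 HEPES buffer, 60 min, room temperature. Protein: biotin-KRas 1-169 with terbium streptavidin. Output: IC50, four-parameter fit of POC.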

[1] = target: T4, KRas-mediated phosphorylation of ERK in MKN1 cells (Homo sapiens, UniProt P01116); test: Inhibition of KRas-mediated phosphorylation of ERK (HTRF), MKN1 cells; assay type: cell-based; details: MKN1 cells (KRas WT); HTRF pERK; 3 h incubation
T4 construct: pERK HTRF read-out
Experimental: Inhibition of KRas Phosphorylation of ERK (HTRF) by Exemplary Compounds of Formula (Ia) or (Ib)
Cisbio HTRF Advanced pERK Assay Catalog #64AERPEH • Cells: MKN1, PSN1 • Procedure: • 1. Day 1: Seed 6,000 cells/well −25 μl/well in 384-well white solid bottom plate; RPM1_10% FBS. Incubate overnight at 37 °C/5% CO2. • 2.

[2] = target: T5, KRas-mediated phosphorylation of ERK in A549 cells (Homo sapiens, UniProt P01116, G12S); test: Inhibition of KRas-mediated phosphorylation of ERK (HTRF), A549 cells; assay type: cell-based; details: HTRF pERK, 3 h incubation
T5 construct: pERK HTRF read-out

[3] = target: T6, KRas-mediated phosphorylation of ERK in H358 cells (Homo sapiens, UniProt P01116, G12C); test: Inhibition of KRas-mediated phosphorylation of ERK (HTRF), H358 cells; assay type: cell-based; details: HTRF pERK, 3 h incubation
T6 construct: pERK HTRF read-out
T6 sequence (P01116 1-188 isoform P01116-2 G12C): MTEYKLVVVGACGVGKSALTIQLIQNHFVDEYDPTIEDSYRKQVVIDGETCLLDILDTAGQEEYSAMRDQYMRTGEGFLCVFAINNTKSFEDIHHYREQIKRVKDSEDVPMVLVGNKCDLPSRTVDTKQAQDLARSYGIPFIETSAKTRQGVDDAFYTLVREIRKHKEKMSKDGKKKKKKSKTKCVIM

T4 sequence (P01116 1-188 isoform P01116-2): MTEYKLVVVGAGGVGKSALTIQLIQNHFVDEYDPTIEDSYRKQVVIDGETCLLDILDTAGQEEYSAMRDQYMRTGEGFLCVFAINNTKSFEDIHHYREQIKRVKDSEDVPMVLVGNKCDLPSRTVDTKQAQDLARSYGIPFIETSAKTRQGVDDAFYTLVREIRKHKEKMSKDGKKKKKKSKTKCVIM
T2 sequence (P01116 1-169 isoform P01116-2 G12S): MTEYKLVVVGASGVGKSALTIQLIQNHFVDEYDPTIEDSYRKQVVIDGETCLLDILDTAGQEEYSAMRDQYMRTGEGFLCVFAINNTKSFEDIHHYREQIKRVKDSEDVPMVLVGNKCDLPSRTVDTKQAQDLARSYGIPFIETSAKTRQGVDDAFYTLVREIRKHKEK
T3 sequence (P01116 1-169 isoform P01116-2): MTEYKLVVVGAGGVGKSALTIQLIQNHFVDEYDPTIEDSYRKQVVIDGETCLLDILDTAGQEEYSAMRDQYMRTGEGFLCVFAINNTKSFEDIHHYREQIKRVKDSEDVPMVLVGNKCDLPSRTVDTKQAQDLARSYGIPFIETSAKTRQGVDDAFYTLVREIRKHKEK
T5 sequence (P01116 1-188 isoform P01116-2 G12S): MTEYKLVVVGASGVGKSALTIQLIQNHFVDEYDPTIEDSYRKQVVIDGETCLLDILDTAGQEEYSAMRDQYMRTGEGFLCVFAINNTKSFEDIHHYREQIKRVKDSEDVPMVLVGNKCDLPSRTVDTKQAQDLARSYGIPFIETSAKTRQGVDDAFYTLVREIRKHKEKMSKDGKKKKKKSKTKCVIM
T1 sequence (P01116 1-169 isoform P01116-2 G12C): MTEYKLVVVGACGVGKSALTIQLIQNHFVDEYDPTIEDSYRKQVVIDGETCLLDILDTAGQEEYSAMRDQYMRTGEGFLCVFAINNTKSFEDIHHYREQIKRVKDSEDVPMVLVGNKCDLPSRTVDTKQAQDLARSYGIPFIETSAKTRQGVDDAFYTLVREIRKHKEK

| IC50 (KRas G12C) | IC50 (KRas G12S) | IC50 (KRas WT) | IC50 [1] | IC50 [2] | IC50 [3] | SMILES |
| --- | --- | --- | --- | --- | --- | --- |
| 623 nM | 371 nM | 165 nM | 868 nM | > 10000 nM | 4600 nM | CCc1c(F)ccc2cc(O)cc(-c3ncc4c(N5CCC(C(=O)NC(C)=O)CC5)nc(OC[C@@]56CCCN5C[C@H](F)C6)nc4c3F)c12 [Example 212, N-acetyl-1-(7-(8-ethyl-7-fluoro-3-hydroxynaphthalen-1-yl)-8-fluoro-2-(((2R,7aS)-2-fluorotetrahydro-1H-pyrrolizin-7a(5H)-yl)methoxy)pyrido[4,3-d]pyrimidin-4-yl)piperidine-4-carboxamide] |
| 48 nM | 77 nM | 39 nM | 156 nM | 806 nM | 391 nM | N#Cc1c(N)sc2c(F)ccc(-c3c(Cl)cc4c(N5CCN(S(=O)(=O)n6ccnn6)CC5)nc(OC[C@@]56CCCN5C[C@H](F)C6)nc4c3F)c12 [Example 252, 4-(4-(4-((1H-1,2,3-triazol-1-yl)sulfonyl)piperazin-1-yl)-6-chloro-8-fluoro-2-(((2R,7aS)-2-fluorotetrahydro-1H-pyrrolizin-7a(5H)-yl)methoxy)quinazolin-7-yl)-2-amino-7-fluorobenzo[b]thiophene-3-carbonitrile] |
| 12 nM | 18 nM | 9 nM | 72 nM | 1210 nM | 14 nM | CCc1c(F)ccc2cc(O)cc(-c3ncc4c(N5CCN(C(=O)n6ccnn6)CC5)nc(OC[C@@]56CCCN5C[C@H](F)C6)nc4c3F)c12 [Example 151, (4-(7-(8-ethyl-7-fluoro-3-hydroxynaphthalen-1-yl)-8-fluoro-2-(((2R,7aS)-2-fluorotetrahydro-1H-pyrrolizin-7a(5H)-yl)methoxy)pyrido[4,3-d]pyrimidin-4-yl)piperazin-1-yl)(1H-1,2,3-triazol-1-yl)methanone] |
| 6 nM | 4 nM | 15 nM | 57 nM | 6 nM | 108 nM | CCc1c(F)ccc2cc(O)cc(-c3ncc4c(NC[C@H]5C[C@@H]5C(=O)n5ccc(C)n5)nc(OC[C@@]56CCCN5C[C@H](F)C6)nc4c3F)c12 [Example 159, ((1S,2S)-2-(((7-(8-ethyl-7-fluoro-3-hydroxynaphthalen-1-yl)-8-fluoro-2-(((2R,7aS)-2-fluorotetrahydro-1H-pyrrolizin-7a(5H)-yl)methoxy)pyrido[4,3-d]pyrimidin-4-yl)amino)methyl)cyclopropyl)(3-methyl-1H-pyrazol-1-yl)methanone] |
| 2 nM | 4 nM | 52 nM | 226 nM | 62 nM | 450 nM | CCc1c(F)ccc2cc(O)cc(-c3ncc4c(N(CCCC(=O)n5ccc(C)n5)C5CC5)nc(OC[C@@]56CCCN5C[C@H](F)C6)nc4c3F)c12 [Example 165, 4-(cyclopropyl(7-(8-ethyl-7-fluoro-3-hydroxynaphthalen-1-yl)-8-fluoro-2-(((2R,7aS)-2-fluorotetrahydro-1H-pyrrolizin-7a(5H)-yl)methoxy)pyrido[4,3-d]pyrimidin-4-yl)amino)-1-(3-methyl-1H-pyrazol-1-yl) butan-1-one] |
| 183 nM | 134 nM | 103 nM | 323 nM | 701 nM | 1320 nM | CCc1c(F)ccc2cc(O)cc(-c3ncc4c(N(C)CC(C)CC(=O)N(C)C(C)=O)nc(OC[C@@]56CCCN5C[C@H](F)C6)nc4c3F)c12 (stereo partly drawn) [Example 283, N-acetyl-4-((7-(8-ethyl-7-fluoro-3-hydroxynaphthalen-1-yl)-8-fluoro-2-(((2R,7aS)-2-fluorotetrahydro-1H-pyrrolizin-7a(5H)-yl)methoxy)pyrido[4,3-d]pyrimidin-4-yl)(methyl)amino)-N,3-dimethylbutanamide] |
| 4 nM | 22 nM | 74 nM | 340 nM | 462 nM | 77 nM | CN(CCCC(=O)Oc1ccc(F)cc1)c1nc(OC[C@@]23CCCN2C[C@H](F)C3)nc2c(F)c(-c3ccc(F)c4sc(N)c(C#N)c34)c(Cl)cc12 [Example 270, 4-fluorophenyl 4-((7-(2-amino-3-cyano-7-fluorobenzo[b]thiophen-4-yl)-6-chloro-8-fluoro-2-(((2R,7aS)-2-fluorotetrahydro-1H-pyrrolizin-7a(5H)-yl)methoxy)quinazolin-4-yl)(methyl)amino)butanoate] |
| < 2 nM | 3 nM | 9 nM | 161 nM | 3 nM | 7 nM | CON(C(C)=O)C(=O)CCCN(C)c1nc(OC[C@@]23CCCN2C[C@H](F)C3)nc2c(F)c(-c3ccc(F)c4sc(N)c(C#N)c34)c(Cl)cc12 [Example 234, N-acetyl-4-((7-(2-amino-3-cyano-7-fluorobenzo[b]thiophen-4-yl)-6-chloro-8-fluoro-2-(((2R,7aS)-2-fluorotetrahydro-1H-pyrrolizin-7a(5H)-yl)methoxy)quinazolin-4-yl)(methyl)amino)-N-methoxybutanamide] |
| 408 nM | 274 nM | 572 nM | 3330 nM | 748 nM | 7290 nM | CCc1c(F)ccc2cc(O)cc(-c3ncc4c(N5CCC(C(=O)n6cc(C(C)(C)C)cn6)CC5)nc(OC[C@@]56CCCN5C[C@H](F)C6)nc4c3F)c12 [Example 72, (4-(tert-butyl)-1H-pyrazol-1-yl)(1-(7-(8-ethyl-7-fluoro-3-hydroxynaphthalen-1-yl)-8-fluoro-2-(((2R,7aS)-2-fluorotetrahydro-1H-pyrrolizin-7a(5H)-yl)methoxy)pyrido[4,3-d]pyrimidin-4-yl)piperidin-4-yl)methanone] |
| 17 nM | 27 nM | 26 nM | 236 nM | 4320 nM | 432 nM | Cc1ccn(C(=O)CCCCN(C)c2nc(OC[C@@]34CCCN3C[C@H](F)C4)nc3c(F)c(-c4ccc(F)c5sc(N)c(C#N)c45)c(Cl)cc23)n1 [Example 199, 2-amino-4-(6-chloro-8-fluoro-2-(((2R,7aS)-2-fluorotetrahydro-1H-pyrrolizin-7a(5H)-yl)methoxy)-4-(methyl(5-(3-methyl-1H-pyrazol-1-yl)-5-oxopentyl)amino)quinazolin-7-yl)-7-fluorobenzo[b]thiophene-3-carbonitrile] |
| 16 nM | 16 nM | 30 nM | 875 nM | 243 nM | 382 nM | CCc1c(F)ccc2cc(O)cc(-c3ncc4c(N(C)CCC(=O)n5ccc(C)n5)nc(OC[C@@]56CCCN5C[C@H](F)C6)nc4c3F)c12 [Example 121, 3-((7-(8-ethyl-7-fluoro-3-hydroxynaphthalen-1-yl)-8-fluoro-2-(((2R,7aS)-2-fluorotetrahydro-1H-pyrrolizin-7a(5H)-yl)methoxy)pyrido[4,3-d]pyrimidin-4-yl)(methyl)amino)-1-(3-methyl-1H-pyrazol-1-yl) propan-1-one] |
